In patent US6436344B1, “Method of inactivating pathogens” (American National Red Cross, priority 1999, dated 2002):
“And” between values parts separate entries of the source, which are not always exact repeats. Equal values may be shown once. Read-outs that look alike come from different tables or passages of the source.

Key:
porcine parvovirus (PPV) [1] = assay: Porcine parvovirus inactivation by CAA, TCID50 titration on PK-13 cells (Example 3); assay type: cell-based, PPV strain NADL-2
Procedure: An aqueous solution of chloroacetaldehyde (Aldrich Chemical, Milwaukee, Wis., Product 31,727-6, Lot KS02106MR, 50% in water) was diluted to the desired mM concentrations (0.5, 1, 2 and 5 mM) in 0.05 M sodium acetate buffer, pH 5.5. The 2 mM and 5 mM CAA samples were also prepared in 2.5% IgG solution, buffered at pH 5.5 with sodium acetate. Positive hold controls contained 0.05 M sodium acetate buffer, pH 5.5, or acetate-buffered 2.5% IgG without CAA. Positive controls and test samples were spiked 1:40 with porcine parvovirus (ATCC VR-742, PPV strain NADL-2). Aliquots were removed for immediate viral assay and the remaining samples were incubated at 37° C. for 4, 7 and 22.5 hours and then assayed to determine viral titers.
(§1) Viral assays were performed by the TCID50 method as described by Miekka et al, HEMOPHILIA 4, 401-408 (1998). Target porcine kidney cells, PK-13 (ATCC CRC-6490), were seeded into 96-well microtiter plates and grown to 50-70% confluence. Five-fold serial dilutions (200 μL) of samples were prepared in cell culture medium and added to four wells each. Plates were incubated for 7 days at 37° C. in humidified 5% carbon dioxide. Cell layers were analyzed for cytopathic effect, and log10 viral titers were calculated by the method of Kärber, ARCH. Exp. PATHOL. PHARMAKOL., 162, 480-483 (1931). The average PPV reduction rate (log10/hour) was computed by regression analysis of the viral titers at each of the time points tested. Viral titers that had decreased to the assay limit were excluded from this calculation.

pseudorabies virus (PRV) = assay type: cell-based; conditions: for Pseudorabies Virus Av. rate / Pseudorabies Virus Reduction Factor: pH 5.5, 4 hours at 37° C.
[2] = target: T1, human coagulation Factor VIII (Homo sapiens, UniProt P00451); assay: Preservation of Factor VIII clotting activity, one-stage APTT (Example 5); assay type: biochemical; conditions: for FVIII u/mL after 37° C. incubation, 3 hours: 3 hours at 37° C.
T1 construct: The CFVIII product tested was ‘Antihemophilic Factor, Human, Method M, Solvent and Detergent Treated’ (American Red Cross); tissue American Red Cross; host or cells: human plasma (own knowledge: Method M is a plasma-derived, monoclonal-antibody-purified concentrate)
T1 sequence (P00451 20-1667 limits assumed): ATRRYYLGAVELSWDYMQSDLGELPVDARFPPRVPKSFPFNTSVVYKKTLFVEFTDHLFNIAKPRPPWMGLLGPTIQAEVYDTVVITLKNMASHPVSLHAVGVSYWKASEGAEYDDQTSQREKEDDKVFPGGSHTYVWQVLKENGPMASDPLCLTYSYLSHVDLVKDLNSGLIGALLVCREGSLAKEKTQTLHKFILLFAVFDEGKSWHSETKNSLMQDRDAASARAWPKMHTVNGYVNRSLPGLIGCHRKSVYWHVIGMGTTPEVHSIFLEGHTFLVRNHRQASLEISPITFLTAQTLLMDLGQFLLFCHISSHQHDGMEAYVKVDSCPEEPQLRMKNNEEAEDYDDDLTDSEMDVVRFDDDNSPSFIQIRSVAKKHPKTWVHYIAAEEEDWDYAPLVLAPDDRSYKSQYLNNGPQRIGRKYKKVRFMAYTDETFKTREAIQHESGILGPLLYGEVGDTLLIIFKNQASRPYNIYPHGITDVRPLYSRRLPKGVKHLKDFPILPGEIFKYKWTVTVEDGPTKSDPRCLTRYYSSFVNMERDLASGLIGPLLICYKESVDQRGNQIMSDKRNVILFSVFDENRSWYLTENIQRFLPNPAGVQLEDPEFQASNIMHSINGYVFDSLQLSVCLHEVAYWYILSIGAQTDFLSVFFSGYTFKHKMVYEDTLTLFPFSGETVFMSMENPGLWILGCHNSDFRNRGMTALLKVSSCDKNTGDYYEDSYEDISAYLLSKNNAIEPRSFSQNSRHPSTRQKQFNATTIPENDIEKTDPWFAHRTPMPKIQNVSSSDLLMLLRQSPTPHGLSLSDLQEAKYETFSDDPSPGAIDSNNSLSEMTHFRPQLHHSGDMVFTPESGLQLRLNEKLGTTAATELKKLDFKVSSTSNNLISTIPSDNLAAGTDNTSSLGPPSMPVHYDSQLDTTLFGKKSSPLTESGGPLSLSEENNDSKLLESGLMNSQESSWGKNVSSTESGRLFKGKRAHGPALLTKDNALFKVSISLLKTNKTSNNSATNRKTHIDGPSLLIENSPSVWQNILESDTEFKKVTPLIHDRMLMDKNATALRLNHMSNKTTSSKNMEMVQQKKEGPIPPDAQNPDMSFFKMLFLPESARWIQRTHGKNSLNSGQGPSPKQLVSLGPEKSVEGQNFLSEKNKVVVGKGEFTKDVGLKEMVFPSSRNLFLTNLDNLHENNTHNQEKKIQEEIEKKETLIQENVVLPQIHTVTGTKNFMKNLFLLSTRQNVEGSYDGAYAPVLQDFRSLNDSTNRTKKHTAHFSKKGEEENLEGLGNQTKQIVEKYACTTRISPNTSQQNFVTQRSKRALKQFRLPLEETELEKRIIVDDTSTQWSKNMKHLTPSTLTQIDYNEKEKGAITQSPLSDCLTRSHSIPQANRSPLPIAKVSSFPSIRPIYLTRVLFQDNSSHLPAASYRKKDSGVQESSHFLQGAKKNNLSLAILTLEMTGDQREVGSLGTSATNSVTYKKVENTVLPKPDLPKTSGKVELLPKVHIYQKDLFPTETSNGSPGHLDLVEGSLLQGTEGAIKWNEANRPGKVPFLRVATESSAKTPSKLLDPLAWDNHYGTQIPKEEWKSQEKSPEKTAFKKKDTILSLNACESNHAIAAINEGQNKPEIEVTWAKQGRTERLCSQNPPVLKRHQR
T1 sequence (P00451 1668-2351 limits assumed): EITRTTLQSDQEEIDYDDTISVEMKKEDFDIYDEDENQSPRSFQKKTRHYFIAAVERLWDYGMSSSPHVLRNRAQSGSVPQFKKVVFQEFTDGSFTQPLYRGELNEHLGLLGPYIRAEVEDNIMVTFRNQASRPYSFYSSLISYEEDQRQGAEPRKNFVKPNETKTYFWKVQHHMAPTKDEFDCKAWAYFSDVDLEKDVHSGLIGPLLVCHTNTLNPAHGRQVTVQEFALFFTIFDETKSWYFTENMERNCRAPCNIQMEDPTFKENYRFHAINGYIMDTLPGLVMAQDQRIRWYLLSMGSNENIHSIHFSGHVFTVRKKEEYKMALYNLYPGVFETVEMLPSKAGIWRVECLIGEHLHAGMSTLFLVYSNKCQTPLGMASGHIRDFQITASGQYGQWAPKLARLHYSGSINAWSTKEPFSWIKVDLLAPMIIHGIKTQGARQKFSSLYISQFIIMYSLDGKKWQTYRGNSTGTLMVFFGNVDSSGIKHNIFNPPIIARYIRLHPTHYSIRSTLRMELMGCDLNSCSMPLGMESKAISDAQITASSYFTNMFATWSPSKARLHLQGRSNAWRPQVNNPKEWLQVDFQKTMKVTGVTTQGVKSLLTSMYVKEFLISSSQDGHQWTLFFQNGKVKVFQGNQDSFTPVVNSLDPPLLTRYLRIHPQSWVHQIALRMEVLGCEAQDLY

porcine parvovirus (PPV) [3] = assay: Inactivation of PPV by CAA in the presence of Factor VIII (Example 6); assay type: cell-based
Procedure: as §1
A stock solution of 100 mM CAA in water was neutralized to pH 7.0 and was added to CFVIII to give final CAA concentrations of 3 mM and 6 mM and final CFVIII concentration of 100 clotting units/mL. All samples were buffered at pH 5.5 with 0.02 M sodium acetate. PPV was spiked into the samples at 1:40 ratio. The samples were incubated for 4 hours at 37° C. The positive hold controls were acetate buffer or Factor VIII, spiked with PPV and incubated 4 hours at 37° C. Viral assays and cell culture techniques were performed as described in EXAMPLE 3. Viral reduction factors were calculated as the difference between the log10 titers of the non-incubated and 4-hour incubated samples.

[4] = target: T2, human coagulation Factor IX (Homo sapiens, UniProt P00740); assay: Preservation of Factor IX clotting activity, one-stage APTT (Example 7); assay type: biochemical; conditions: 0.01 M calcium chloride, pH 6.2
T2 construct: highly-purified human coagulation Factor IX, a labile plasma clotting factor; from tissue
T2 sequence (P00740 47-461): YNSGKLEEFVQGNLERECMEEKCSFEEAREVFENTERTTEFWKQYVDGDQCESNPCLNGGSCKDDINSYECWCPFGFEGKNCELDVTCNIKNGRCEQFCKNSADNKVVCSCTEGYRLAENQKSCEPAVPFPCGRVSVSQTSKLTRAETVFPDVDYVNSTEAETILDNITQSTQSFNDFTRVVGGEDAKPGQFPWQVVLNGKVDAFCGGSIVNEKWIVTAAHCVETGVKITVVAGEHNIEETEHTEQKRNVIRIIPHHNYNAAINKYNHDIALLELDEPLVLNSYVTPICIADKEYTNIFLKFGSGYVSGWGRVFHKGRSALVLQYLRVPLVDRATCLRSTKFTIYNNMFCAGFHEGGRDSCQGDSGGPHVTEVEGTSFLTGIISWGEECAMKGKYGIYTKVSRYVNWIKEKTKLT

[5] = 5 mM CAA, incubation for 4 hours
[6] = CAA 3 mM, Factor VIII (AHF-M) 100 clotting units/mL, pH 5.5, 4 hours at 37° C.
[7] = CAA 3 mM, buffer pH 5.5, 4 hours at 37° C.
[8] = CAA 6 mM, Factor VIII (AHF-M) 100 clotting units/mL, pH 5.5, 4 hours at 37° C.
[9] = CAA 6 mM, buffer pH 5.5, 4 hours at 37° C.
[10] = CAA 3 and 6 mM, with and without Factor VIII, 4 hours

SMILES: O=CCCl [CAA, Chloroacetaldehyde]
- PPV inactivation rate (porcine parvovirus (PPV) [1]; 2 mM CAA): ~0.6 log10/hour
- porcine parvovirus inactivated (porcine parvovirus (PPV) [1]; [5]): 3.2 -4 log10
- porcine parvovirus inactivated (porcine parvovirus (PPV) [1]; 4-hour treatment with 5 mM CAA): ≥ 3.6 logs
- Average PPV Reduction (porcine parvovirus (PPV) [1]; CAA 0.5 mM (total), buffer, pH 5.40, 37° C.): 0.16 Log10/hour
- Average PPV Reduction (porcine parvovirus (PPV) [1]; CAA 1 mM (total), buffer, pH 5.40, 37° C.): 0.26 Log10/hour
- Average PPV Reduction (porcine parvovirus (PPV) [1]; CAA 2 mM (total), 2.5% IgG, pH 5.36, 37° C.): 0.61 Log10/hour
- Average PPV Reduction (porcine parvovirus (PPV) [1]; CAA 2 mM (total), buffer, pH 5.50, 37° C.): 0.48 Log10/hour
- Average PPV Reduction (porcine parvovirus (PPV) [1]; CAA 5 mM (total), 2.5% IgG, pH 5.50, 37° C.): ≧0.79 Log10/hour
- concentration effective at inactivating pathogens (as low as) (porcine parvovirus (PPV) [1]; aqueous solutions of chloroacetaldehyde): about 1.0 mM
- Pseudorabies Virus Av. rate (pseudorabies virus (PRV); 2 mM): 0.66 log10/hour
- Pseudorabies Virus Reduction Factor (pseudorabies virus (PRV); 2 mM): 2.10 log10/4 hours
- pseudorabies virus inactivated (pseudorabies virus (PRV); [5]): ≥ 3.2 log10
- Pseudorabies Virus Av. rate (pseudorabies virus (PRV); 5 mM): ≧0.79 log10/hour
- Pseudorabies Virus Reduction Factor (pseudorabies virus (PRV); 5 mM): ≧3.15 log10/4 hours
- FVIII u/mL after 37° C. incubation, 0 hour ([2]; CAA 4.2 mM): 121 u/mL and 95 u/mL
- FVIII u/mL after 37° C. incubation, 0 hour ([2]; CAA 8.5 mM): 88 u/mL and 109 u/mL
- FVIII u/mL after 37° C. incubation, 3 hours ([2]; CAA 8.5 mM): 105 u/mL and 117 u/mL
- FVIII u/mL after 37° C. incubation, 0 hour ([2]; CAA 12.7 mM): 89 u/mL and 106 u/mL
- FVIII u/mL after 37° C. incubation, 3 hours ([2]; CAA 12.7 mM): 91 u/mL and 108 u/mL
- PPV Average rate (porcine parvovirus (PPV) [3]; [6]): ≧0.61 Log10/hour
- PPV Reduction Factor (porcine parvovirus (PPV) [3]; [6]): ≧2.44 Log10/4 hours
- PPV Average rate (porcine parvovirus (PPV) [3]; [7]): ≧0.57 Log10/hour
- PPV Reduction Factor (porcine parvovirus (PPV) [3]; [7]): ≧2.27 Log10/4 hours
- PPV Average rate (porcine parvovirus (PPV) [3]; [8]): ≧0.52 Log10/hour
- PPV Reduction Factor (porcine parvovirus (PPV) [3]; [8]): ≧2.09 Log10/4 hours
- PPV Average rate (porcine parvovirus (PPV) [3]; [9]): ≧0.43 Log10/hour
- PPV Reduction Factor (porcine parvovirus (PPV) [3]; [9]): ≧1.75 Log10/4 hours
- PPV reduction factors (limited by assay sensitivity) (porcine parvovirus (PPV) [3]; [10]): ≥ 2 log10/4 hours
- PPV reduction rate (limited by assay sensitivity) (porcine parvovirus (PPV) [3]; [10]): ≥ 0.5 log10/hour
- % of initial clotting activity remaining after 37° C. incubation ([4]; CFIX-M + 1 mM CAA, 0 hour): 95.2%
- % of initial clotting activity remaining after 37° C. incubation ([4]; CFIX-M + 1 mM CAA, 4 hour): 93.9%
- % of initial clotting activity remaining after 37° C. incubation ([4]; CFIX-M + 1 mM CAA, 20 hour): 100.3%
- % of initial clotting activity remaining after 37° C. incubation ([4]; CFIX-M + 5 mM CAA, 0 hour): 97.7%
- % of initial clotting activity remaining after 37° C. incubation ([4]; CFIX-M + 5 mM CAA, 4 hour): 100.6%
- % of initial clotting activity remaining after 37° C. incubation ([4]; CFIX-M + 5 mM CAA, 20 hour): 89.1%
